Experimental data published in ChEMBL document CHEMBL1147618, “Crucial amides for dimerization inhibitors of HIV-1 protease” (Bioorg Med Chem Lett, 2004).

Legend:
[1] = target: Human immunodeficiency virus type 1 protease (Human immunodeficiency virus 1, UniProt Q72874); assay: Inhibitory concentration against Protease
[2] = target: Human immunodeficiency virus type 1 protease (Human immunodeficiency virus 1) (UniProt Q72874); assay: Relative loss of potency of compound in inhibiting Protease was determined

Structure (SMILES)	IC50 [1]	Relative loss of potency [2]
CC(C)C[C@H](NC(=O)[C@H]([C@H](C)O)N(C)C(=O)CCCCCCCCCCCCCCC(=O)N[C@@H](C(N)=O)C(=O)N[C@H](Cc1ccccc1)C(=O)O)C(=O)N[C@@H](Cc1ccccc1)C(N)=O	8.3 µM	1.4
CC(C)C[C@@H](C(=O)N[C@@H](Cc1ccccc1)C(N)=O)N(C)C(=O)[C@@H](NC(=O)CCCCCCCCCCCCCCC(=O)N[C@@H](C(N)=O)C(=O)N[C@H](Cc1ccccc1)C(=O)O)[C@H](C)O	8 µM	1.4
CC(C)C[C@H](NC(=O)[C@@H](NC(=O)CCCCCCCCCCCCCCC(=O)N[C@@H](C(N)=O)C(=O)N[C@H](Cc1ccccc1)C(=O)O)[C@H](C)O)C(=O)N(C)[C@@H](Cc1ccccc1)C(N)=O	13 µM	2.2
CC(C)C[C@H](NC(=O)[C@@H](NC(=O)CCCCCCCCCCCCCCC(=O)N(C)[C@@H](C(N)=O)C(=O)N[C@H](Cc1ccccc1)C(=O)O)[C@H](C)O)C(=O)N[C@@H](Cc1ccccc1)C(N)=O	4.5 µM	–
CC(C)C[C@H](NC(=O)[C@@H](NC(=O)CCCCCCCCCCCCCCC(=O)N[C@@H](C(N)=O)C(=O)N(C)[C@H](Cc1ccccc1)C(=O)O)[C@H](C)O)C(=O)N[C@@H](Cc1ccccc1)C(N)=O	9.6 µM	1.6
CC(C)C[C@H](NC(=O)[C@@H](NC(=O)CCCCCCCCCCCCCCC(=O)N[C@@H](C(N)=O)C(=O)N[C@H](Cc1ccccc1)C(=O)O)[C@H](C)O)C(=O)N[C@@H](Cc1ccccc1)C(N)=O	5.9 µM	1
CC(C)C[C@H](NC(=O)[C@@H](NC(=O)CCCCCCCCCCCCCCC(=O)N[C@@H](C(N)=O)C(=O)N(C)[C@H](Cc1ccccc1)C(=O)O)[C@H](C)O)C(=O)NCCc1ccccc1	5.8 µM	–
